Measured values as given in patent publication US10604523B2, “1-aryl-4-methyl-[1,2,4]triazolo[4,3-a]quinoxaline derivatives” (Janssen Pharmaceutica NV, priority 2011, dated 2020).
Like-named read-outs stand apart in the source and are kept apart here.

What was measured:
[1] = target: T1, Human recombinant PDE2A (hPDE2A) (Homo sapiens, UniProt O00408); test: In vitro assay PDE2A (SPA, 3H-cGMP); format: biochemical; settings: read-out: pIC50 PDE2 (converted)
T1 construct: made in house; host or cells: Sf9 insect cells (baculovirus)

[2] = target: T2, Rat recombinant PDE10A (rPDE10A2) (Rattus norvegicus, UniProt Q9QYJ6); test: In vitro assay PDE10A (SPA, 3H-cAMP); format: biochemical; settings: for IC50: read-out: PIC50 PDE10 (converted)
T2 construct: made in house; host or cells: Sf9 insect cells (baculovirus)
T2 sequence (Q9QYJ6 1-794): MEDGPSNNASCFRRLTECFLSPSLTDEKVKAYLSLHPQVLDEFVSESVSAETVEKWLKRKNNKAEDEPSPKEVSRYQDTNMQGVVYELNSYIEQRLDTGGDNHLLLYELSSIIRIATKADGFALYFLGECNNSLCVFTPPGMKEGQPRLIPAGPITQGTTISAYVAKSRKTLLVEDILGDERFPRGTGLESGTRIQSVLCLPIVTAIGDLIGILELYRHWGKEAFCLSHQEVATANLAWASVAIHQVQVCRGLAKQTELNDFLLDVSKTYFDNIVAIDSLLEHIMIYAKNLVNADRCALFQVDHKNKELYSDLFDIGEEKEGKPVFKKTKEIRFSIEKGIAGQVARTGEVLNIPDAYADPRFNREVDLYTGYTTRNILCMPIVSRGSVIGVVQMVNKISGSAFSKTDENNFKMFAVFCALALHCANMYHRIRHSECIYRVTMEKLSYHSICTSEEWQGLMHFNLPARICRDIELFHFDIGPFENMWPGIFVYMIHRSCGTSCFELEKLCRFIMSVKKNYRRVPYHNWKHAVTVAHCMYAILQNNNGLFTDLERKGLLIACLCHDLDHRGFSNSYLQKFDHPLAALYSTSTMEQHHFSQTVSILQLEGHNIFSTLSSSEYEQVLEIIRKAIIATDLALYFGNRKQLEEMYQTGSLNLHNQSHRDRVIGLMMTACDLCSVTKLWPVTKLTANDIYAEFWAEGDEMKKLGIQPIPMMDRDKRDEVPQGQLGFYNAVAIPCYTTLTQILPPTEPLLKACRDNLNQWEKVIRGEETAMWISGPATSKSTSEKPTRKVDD

[3] = tested on: Apomorphine-induced agitation; test: Reversal of Apomorphine-induced Agitation in Rats (APO); format: in vivo, rat; settings: for PO Max effect (cumulative agitation score over 60 min) / SC Max effect (cumulative agitation score over 60 min): apomorphine 1.0 mg/kg i.v.; for PO LAD (lowest active dose) / SC LAD (lowest active dose): lowest dose at which ≥67% tested animals respond; for SC Dose at max effect / SC Max effect (cumulative agitation score over 60 min) / SC LAD (lowest active dose): subcutaneous route
Experimental: Apomorphine (1.0 mg/kg, i.v.)-induced agitation was scored every 5 min over the first hour after injection of apomorphine. The score system was: (3) pronounced, (2) moderate, (1) slight, and (0) absent. […] For the present purpose, the cumulative agitation score over the whole 60-min observation period was used as a measure to describe the maximum effect (Max effect).

[4] = -log IC50 expressed in mol/L, rPDE10A2, 60 nM cAMP

T1 sequence (O00408 whole entry): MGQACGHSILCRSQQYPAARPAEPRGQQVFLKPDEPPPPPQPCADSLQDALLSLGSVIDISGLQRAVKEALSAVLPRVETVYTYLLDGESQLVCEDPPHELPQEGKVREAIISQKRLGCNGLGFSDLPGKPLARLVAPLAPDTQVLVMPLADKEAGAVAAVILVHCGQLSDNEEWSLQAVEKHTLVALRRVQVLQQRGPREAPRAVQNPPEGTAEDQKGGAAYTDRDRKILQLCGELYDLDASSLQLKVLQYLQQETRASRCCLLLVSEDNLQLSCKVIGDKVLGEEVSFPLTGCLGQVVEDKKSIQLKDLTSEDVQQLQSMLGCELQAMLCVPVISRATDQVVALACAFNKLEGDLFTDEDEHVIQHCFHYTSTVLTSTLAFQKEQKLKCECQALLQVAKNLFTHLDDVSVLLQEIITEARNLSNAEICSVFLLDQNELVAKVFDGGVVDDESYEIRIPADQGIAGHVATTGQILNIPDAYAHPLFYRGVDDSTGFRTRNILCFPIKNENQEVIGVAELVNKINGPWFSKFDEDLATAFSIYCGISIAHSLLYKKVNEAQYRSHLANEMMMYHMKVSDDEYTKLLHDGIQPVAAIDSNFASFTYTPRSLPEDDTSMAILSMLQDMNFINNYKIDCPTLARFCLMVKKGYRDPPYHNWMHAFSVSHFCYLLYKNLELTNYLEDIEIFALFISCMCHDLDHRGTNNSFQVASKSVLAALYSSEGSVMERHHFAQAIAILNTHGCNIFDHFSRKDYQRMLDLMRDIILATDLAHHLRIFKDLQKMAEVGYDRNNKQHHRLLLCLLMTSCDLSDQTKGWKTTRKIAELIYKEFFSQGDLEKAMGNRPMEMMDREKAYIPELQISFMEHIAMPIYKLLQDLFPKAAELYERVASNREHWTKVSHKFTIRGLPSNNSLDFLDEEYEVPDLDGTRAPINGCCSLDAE

Row | Compound | IC50 [1] [nM] | IC50 [2] [nM] | further results
1 | CCOC(=O)c1ccc2c(c1)nc(C)c1nnc(-c3ccccc3Cl)n12 [Compound B-1b, ethyl 1-(2-chlorophenyl)-4-methyl[1,2,4]triazolo[4,3-a]quinoxaline-7-carboxylate] | 51.3 | 447 | –
2 | Cc1nc2ccc(Br)cc2n2c(-c3ccccc3OC(F)(F)F)nnc12 [Compound B-159] | 60.3 | 347 | –
3 | CCCCOc1ccc(Cl)c(-c2nnc3c(C)nc4ccc(N5CCN(C)CC5)cc4n23)c1 [Compound B-26, 1-(5-Butoxy-2-chlorophenyl)-4-methyl-8-(4-methylpiperazin-1-yl) [1,2,4]triazolo-[4,3-a]quinoxaline] | 17.4 | 1260 | –
4 | CCCCOc1cncc(-c2nnc3c(C)nc4ccc(CN5CCC(F)CC5)cc4n23)c1 [Compound B-201] | 95.5 | 5130 | –
5 | CCCCOc1ccc(Cl)c(-c2nnc3c(C)nc4ccc(CN5CCC(O)CC5)cc4n23)c1 [Compound B-105] | 19.1 | 1450 | –
6 | CCCOc1ccc(Cl)c(-c2nnc3c(C)nc4ccc(CN5CCC(O)CC5)cc4n23)c1 [Compound B-129] | 28.8 | 891 | –
7 | CCNC(=O)c1ccc2c(c1)nc(C)c1nnc(-c3cncc(OC)c3)n12 [Compound B-172] | 126 | 7760 | –
8 | CCCCOc1cncc(-c2nnc3c(C)nc4ccc(CNCC5CC5)cc4n23)c1 [Compound B-156] | 61.7 | 7940 | –
9 | CCNC(=O)c1ccc2c(c1)nc(C)c1nnc(-c3cccnc3OC)n12 [Compound B-180] | 204 | 1780 | –
10 | CCNC(=O)c1ccc2c(c1)nc(C)c1nnc(-c3cccnc3C)n12 [Compound B-169] | 102 | 2820 | –
11 | Cc1nc2ccc(C(=O)NCc3ccccn3)cc2n2c(-c3ccccc3Cl)nnc12 [Compound B-35] | – | – | PO Dose at Max Effect [3]: 10 mg/kg; PO Max effect (cumulative agitation score over 60 min) [3]: 22; PO LAD (lowest active dose) [3]: > 10 mg/kg; IC50 [2, 4]: 8.32 nM
12 | COc1ccc(Cl)c(-c2nnc3c(C)nc4ccc(CN5CCOCC5)cc4n23)c1 [Compound B-84] | – | – | PO Dose at Max Effect [3]: 10 mg/kg; PO Max effect (cumulative agitation score over 60 min) [3]: 21; PO LAD (lowest active dose) [3]: > 10 mg/kg; IC50 [2, 4]: 105 nM
13 | COC1CCCN(Cc2ccc3nc(C)c4nnc(-c5ccccc5Cl)n4c3c2)C1 (stereo not drawn) [Compound B-86] | 11 | 38 | –
14 | CCNC(=O)c1ccc2nc(C)c3nnc(-c4cccnc4C)n3c2c1 [Compound B-68] | – | – | SC Dose at max effect [3]: 10 mg/kg; SC Max effect (cumulative agitation score over 60 min) [3]: 22; SC LAD (lowest active dose) [3]: > 10 mg/kg; IC50 [2, 4]: 178 nM
15 | CCNC(=O)c1ccc2nc(C)c3nnc(-c4cccnc4OC)n3c2c1 [Compound B-123] | 27.5 | 417 | –
16 | Cc1cncc(-c2nnc3c(C)nc4ccccc4n23)c1 [Compound B-177] | 162 | – | –
17 | Cc1nc2ccc(N(C)C)cc2n2c(-c3ccccc3Cl)nnc12 [Compound B-87] | 11.2 | 26.9 | –
18 | Cc1cncc(-c2nnc3c(C)nc4ccc(Br)cc4n23)c1 [Compound B-154] | 52.5 | 380 | –
19 | CCOc1ccc(Cl)c(-c2nnc3c(C)nc4ccc(CN(C)C)cc4n23)c1 [Compound B-142] | – | 316 | SC Dose at max effect [3]: 10 mg/kg; SC Max effect (cumulative agitation score over 60 min) [3]: 22; SC LAD (lowest active dose) [3]: > 10 mg/kg
20 | Cc1nc2ccc(CN3CCOCC3)cc2n2c(-c3ccc(F)cc3Cl)nnc12 [Compound B-82] | – | 85.1 | SC Dose at max effect [3]: 10 mg/kg; SC Max effect (cumulative agitation score over 60 min) [3]: 9; SC LAD (lowest active dose) [3]: 2.5 mg/kg
21 | Cc1ncccc1-c1nnc2c(C)nc3ccccc3n12 [Compound B-174] | 138 | – | –
22 | Cc1nc2ccccc2n2c(-c3cncc(Cl)c3)nnc12 [Compound B-183] | 316 | – | –
23 | COC1CCN(Cc2ccc3nc(C)c4nnc(-c5ccccc5Cl)n4c3c2)CC1 [Compound B-93] | – | – | SC Dose at max effect [3]: 10 mg/kg; SC Max effect (cumulative agitation score over 60 min) [3]: 7; SC LAD (lowest active dose) [3]: 10 mg/kg; PIC50 PDE10 [2, 4]: 7.41
24 | Cc1nc2ccc(CN3CCCC(CO)C3)cc2n2c(-c3ccccc3Cl)nnc12 (stereo not drawn) [Compound B-110] | – | 44.7 | SC Dose at max effect [3]: 10 mg/kg; SC Max effect (cumulative agitation score over 60 min) [3]: 21; SC LAD (lowest active dose) [3]: > 10 mg/kg
25 | Cc1nc2ccc(Br)cc2n2c(-c3ccccc3Cl)nnc12 [Compound B-3a, 8-Bromo-1-(2-chlorophenyl)-4-methyl[1,2,4]triazolo[4,3-a]quinoxaline] | – | – | PO Dose at Max Effect [3]: 10 mg/kg; PO Max effect (cumulative agitation score over 60 min) [3]: 22; PO LAD (lowest active dose) [3]: > 10 mg/kg; IC50 [2, 4]: 43.7 nM
